Data taken from ChEMBL document CHEMBL1201862, “PubChem BioAssay data set” (2004).
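Interpolation was linear, between the two tested concentrations surrounding the appropriate level; five concentrations were tested over 48 hours in 96-well plates. GI50: concentration for 50% inhibition of growth.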 The source made the active and inactive calls. No stated cut-off is given here; in the data, active = GI50 up to about 1.1 µM and inactive = higher.

Assays:
Assay in all cases: NCI tumour cell line growth inhibition, 48 h
UACC-257 = system: UACC-257
SK-MEL-2 = system: SK-MEL-2
UO-31 = system: UO-31
DMS-273 = system: DMS-273
HOP-62 = system: HOP-62
HT-29 = system: HT-29
TK-10 = system: TK-10
HOP-18 = system: HOP-18
U-251 = system: U-251
M14 = system: M14
OVCAR-8 = system: OVCAR-8
COLO 205 = system: COLO 205
SR = system: SR
HL-60 = system: HL-60
M19-MEL = system: M19-MEL
Malme-3M = system: Malme-3M
RPMI-8226 = system: RPMI-8226
RXF 393 = system: RXF 393
HCT-116 = system: HCT-116
NCI-H23 = system: NCI-H23
LXFL 529 = system: LXFL 529
MOLT-4 = system: MOLT-4
LOX IMVI = system: LOX IMVI
OVCAR-3 = system: OVCAR-3
DLD-1 = system: DLD-1
RXF 631 = system: RXF 631
SK-MEL-5 = system: SK-MEL-5
SN12C = system: SN12C
NCI-H460 = system: NCI-H460
CAKI-1 = system: CAKI-1
IGROV-1 = system: IGROV-1
HCT-15 = system: HCT-15
SNB-78 = system: SNB-78
OVCAR-5 = system: OVCAR-5
KM12 = system: KM12
HCC 2998 = system: HCC 2998
SK-MEL-28 = system: SK-MEL-28
DMS-114 = system: DMS-114
NCI-H226 = system: NCI-H226
UACC-62 = system: UACC-62
ACHN = system: ACHN
XF498 = system: XF498
786-0 = system: 786-0
SF-539 = system: SF-539
SW-620 = system: SW-620
K562 = system: K562
HOP-92 = system: HOP-92
SNB-75 = system: SNB-75
SF-268 = system: SF-268
SF-295 = system: SF-295
NCI-H522 = system: NCI-H522
SK-OV-3 = system: SK-OV-3
EKVX = system: EKVX
A549 = system: A549
OVCAR-4 = system: OVCAR-4
KM-20L2 = system: KM-20L2
SNB-19 = system: SNB-19

Cn1c(=O)c(C(c2ccc([N+](=O)[O-])cc2)c2c(O)c3ccccc3n(C)c2=O)cc2ccccc21 (configuration not stated)
GI50 (UACC-257): 20.5 µM (inactive) | GI50 (SK-MEL-2): 59.6 µM (inactive) | GI50 (UO-31): 35.2 µM (inactive) | GI50 (DMS-273): 37.2 µM (inactive) | GI50 (HOP-62): 27.7 µM (inactive) | GI50 (HT-29): 44.8 µM (inactive) | GI50 (TK-10): 29.9 µM (inactive) | GI50 (HOP-18): 42.5 µM (inactive) | GI50 (U-251): 18.2 µM (inactive) | GI50 (M14): 37.8 µM (inactive) | GI50 (OVCAR-8): > 100 µM (inactive) | GI50 (COLO 205): 32.7 µM (inactive) | GI50 (SR): 39.4 µM (inactive) | GI50 (HL-60): 36.1 µM (inactive) | GI50 (M19-MEL): 35.5 µM (inactive) | GI50 (Malme-3M): 26.7 µM (inactive) | GI50 (RPMI-8226): 41.8 µM (inactive) | GI50 (RXF 393): 26.4 µM (inactive) | GI50 (HCT-116): 44.2 µM (inactive) | GI50 (NCI-H23): 32.6 µM (inactive) | GI50 (LXFL 529): 42.2 µM (inactive) | GI50 (MOLT-4): 41.7 µM (inactive) | GI50 (LOX IMVI): 35.2 µM (inactive) | GI50 (OVCAR-3): 55.3 µM (inactive) | GI50 (DLD-1): 36.8 µM (inactive) | GI50 (RXF 631): 49.9 µM (inactive) | GI50 (SK-MEL-5): 51.3 µM (inactive) | GI50 (SN12C): 57.7 µM (inactive) | GI50 (NCI-H460): > 100 µM (inactive) | GI50 (CAKI-1): 47.8 µM (inactive) | GI50 (IGROV-1): 42.3 µM (inactive) | GI50 (HCT-15): 45.8 µM | GI50 (SNB-78): 43.2 µM (inactive) | GI50 (OVCAR-5): 28.4 µM (inactive) | GI50 (KM12): 75.2 µM (inactive) | GI50 (HCC 2998): > 100 µM (inactive) | GI50 (SK-MEL-28): 48.1 µM (inactive) | GI50 (DMS-114): 56.2 µM (inactive) | GI50 (NCI-H226): 13.4 µM (inactive) | GI50 (UACC-62): 19.2 µM (inactive) | GI50 (ACHN): 57.8 µM (inactive) | GI50 (XF498): 55.3 µM (inactive) | GI50 (786-0): 54.6 µM (inactive) | GI50 (SF-539): 43.6 µM (inactive) | GI50 (SW-620): > 100 µM (inactive) | GI50 (K562): > 100 µM (inactive) | GI50 (HOP-92): 53.1 µM (inactive) | GI50 (SNB-75): 23 µM (inactive) | GI50 (SF-268): 53.1 µM (inactive) | GI50 (SF-295): 39.3 µM (inactive) | GI50 (NCI-H522): 20 µM (inactive) | GI50 (SK-OV-3): 60.1 µM (inactive) | GI50 (EKVX): 41.7 µM (inactive) | GI50 (A549): 93.5 µM (inactive) | GI50 (OVCAR-4): 41.1 µM (inactive) | GI50 (KM-20L2): 45 µM (inactive) | GI50 (SNB-19): 40.3 µM (inactive)
